# Source: patent US20220194959A1, “CRYSTAL FORM OF EGFR INHIBITOR AND PREPARATION METHOD THEREOF” (MEDSHINE DISCOVERY INC., priority 2019, published 2022)
# Legend:
# Type in all cases: physicochemical
# [1] = Stability assay under illumination, high humidity, high temperature and acceleration (related substances and crystal form); design: Total impurity: unit not given here; settings: for Change of crystal form: 17 days
# Experimental: The stability of crystal form of the crystal form A and the crystal form C of the compound of formula (II) under the conditions of illumination, high humidity (92.5% RH), high temperature (60° C.) and acceleration (40° C./75% RH) was investigated.
# Illumination test chamber, model: SHH-100GD-2, conditions: 5000±500 lux (visible light) and 90 mw/cm^2 (ultraviolet).
# Electrothermal blowing dry box, model: GZX-9140MBE, conditions: 60° C.
# Constant temperature and humidity chamber, model: LDS-800Y, conditions: 40° C./75% RH.
# Constant temperature and humidity chamber, model: SHH-250SD, conditions: 25° C., 92.5% RH.
# An appropriate amount of the crystal form A of the compound of formula (II) was weighed and placed in a dry and clean weighing bottle. The sample was spread into a thin layer, and fully exposed to assay conditions (60° C., 92.5% RH, illumination) and acceleration conditions (40° C./75% RH). After 17 days, the compound was taken out and determined for related substances and crystal form. […]
# [2] = Hygroscopicity study by dynamic vapor sorption (DVS)
# Experimental: 1.4. Dynamic Vapor Sorption, DVS Method
# Instrument model: SMS DVS Advantage dynamic vapor sorption apparatus
# Test conditions: The sample (10 to 15 mg) is weighed and placed in a DVS sample pan for testing.
# The detailed DVS parameters are as follows:
# Equilibration: dm/dt=0.01%/min (The shortest time: 10 min, and the longest time: 180 min)
# Drying: Dried for 120 min at 0% RH
# RH (%) test gradient: 10%
# Range of RH (%) test gradient: 0%-90%-0%
# The classification of hygroscopicity evaluation is as follows:
# 10-15 mg of the crystal form A and the crystal form C of the compound of formula (II) were weighed and placed into a DVS sample pan for testing.
# [3] = Water activity assay (stability of the crystal form in water with different activities); settings: methanol/water, stirred two days, XRPD
# Experimental: The stability of the crystal form in water with different activities was determined.
# About 30 mg of the crystal form A of the compound of formula (II) was weighed and placed in a 1.5 mL liquid phase vial. A magnetic bar was added, and an appropriate amount of water activity agent in a system of methanol and water was pipetted into the liquid phase vial. The suspension sample was mixed well and then placed on a magnetic stirrer (25° C., 700 rpm). After stirring for two days, the wet sample was determined by XRPD.
# [4] = Solubility assay in media with different pHs; settings: for Solubility (24 hours) / Solubility (2 hours): 37° C.; for Final pH: filtrate of saturated solution
# Experimental: (§1) 9 parts of 4 mg of the crystal form A of the compound of formula (II) were weighed and added to a 1.5 mL sample bottle, respectively, and then 1 mL of different media (0.1 mol/L HCl, 0.01 mol/L HCl, pH3.8 buffer solution, pH4.5 buffer solution, pH5.5 buffer solution, pH6.0 buffer solution, pH6.8 buffer solution, pH7.4 buffer solution, and water) were added, respectively. Based on the dissolution situation, the raw material compound was continuously added until a saturated solution was formed. The magnetic bar was added to the above suspension, and the suspension was placed on a magnetic stirrer (37° C., protected from light) and stirred. […] The upper layer of the sample was filtered with a filter membrane, and the pH value of the filtrate was determined. The saturated solubility of the compound was determined by HPLC.
# as §1, with “C” for “A”
compound,measurement,setting,value
COc1cc2ncnc(Nc3cccc(Cl)c3F)c2cc1N1CC2(CN(C)C2)OC1=O.Cc1ccc(S(=O)(=O)O)cc1 [crystal form A of the compound of formula (II)],Stability compared with the crystal form D of the maleate of the compound of formula (I),[1],better
same,Related substance at relative retention time 0.24,[1]; 40° C. - 75% RH - 17 days,0.03
same,Related substance at relative retention time 0.67,[1]; 40° C. - 75% RH - 17 days,0.16
same,Related substance at relative retention time 0.88,[1]; 40° C. - 75% RH - 17 days,0.04
same,Related substance at relative retention time 0.92,[1]; 40° C. - 75% RH - 17 days,0.04
same,Related substance at relative retention time 1.24,[1]; 40° C. - 75% RH - 17 days,0.15
same,Related substance at relative retention time 1.30,[1]; 40° C. - 75% RH - 17 days,0.18
same,Related substance at relative retention time 1.56,[1]; 40° C. - 75% RH - 17 days,0.04
same,Related substance at relative retention time 1.76,[1]; 40° C. - 75% RH - 17 days,0.04
same,Total impurity,[1]; 40° C. - 75% RH - 17 days,0.66
same,Related substance at relative retention time 0.24,[1]; 60° C. - 17 days,0.03
same,Related substance at relative retention time 0.67,[1]; 60° C. - 17 days,0.91
same,Related substance at relative retention time 0.88,[1]; 60° C. - 17 days,0.05
same,Related substance at relative retention time 0.92,[1]; 60° C. - 17 days,0.03
same,Related substance at relative retention time 1.24,[1]; 60° C. - 17 days,0.15
same,Related substance at relative retention time 1.30,[1]; 60° C. - 17 days,0.16
same,Related substance at relative retention time 1.56,[1]; 60° C. - 17 days,0.04
same,Related substance at relative retention time 1.76,[1]; 60° C. - 17 days,0.07
same,Total impurity,[1]; 60° C. - 17 days,1.44
same,Related substance at relative retention time 0.24,[1]; 92.5% RH - 17 days,0.03
same,Related substance at relative retention time 0.67,[1]; 92.5% RH - 17 days,0.05
same,Related substance at relative retention time 0.88,[1]; 92.5% RH - 17 days,0.04
same,Related substance at relative retention time 0.92,[1]; 92.5% RH - 17 days,0.04
same,Related substance at relative retention time 1.24,[1]; 92.5% RH - 17 days,0.14
same,Related substance at relative retention time 1.30,[1]; 92.5% RH - 17 days,0.18
same,Related substance at relative retention time 1.56,[1]; 92.5% RH - 17 days,0.04
same,Related substance at relative retention time 1.76,[1]; 92.5% RH - 17 days,0.02
same,Total impurity,[1]; 92.5% RH - 17 days,0.54
same,Related substance at relative retention time 0.24,[1]; Illumination - 17 days,0.03
same,Related substance at relative retention time 0.67,[1]; Illumination - 17 days,0.07
same,Related substance at relative retention time 0.88,[1]; Illumination - 17 days,0.04
same,Related substance at relative retention time 0.92,[1]; Illumination - 17 days,0.05
same,Related substance at relative retention time 1.24,[1]; Illumination - 17 days,0.13
same,Related substance at relative retention time 1.30,[1]; Illumination - 17 days,0.17
same,Related substance at relative retention time 1.56,[1]; Illumination - 17 days,0.04
same,Total impurity,[1]; Illumination - 17 days,0.46
same,Related substance at relative retention time 0.24,[1]; Initial sample,0.03
same,Related substance at relative retention time 0.67,[1]; Initial sample,0.05
same,Related substance at relative retention time 0.88,[1]; Initial sample,0.03
same,Related substance at relative retention time 1.24,[1]; Initial sample,0.15
same,Related substance at relative retention time 1.30,[1]; Initial sample,0.18
same,Related substance at relative retention time 1.56,[1]; Initial sample,0.04
same,Total impurity,[1]; Initial sample,0.53
same,Change of crystal form,[1]; acceleration (40° C./75% RH),not changed
same,Change of crystal form,[1]; high humidity (92.5% RH),changed
same,Change of crystal form,[1]; high temperature (60° C.),not changed
same,Change of crystal form,[1]; illumination,not changed
same,Formation of degradation impurity (conclusion),"[1]; illumination, high temperature, high humidity, acceleration",produces a degradation impurity only under the condition of high temperature
same,ΔW (weight increase by moisture absorption),[2]; 25° C. and 80% RH,1.329%
same,Classification of hygroscopicity,"[2]; 25° C., 80% RH",slightly hygroscopic
same,Crystal form change in water activity assay,"[3]; water activity 0.1 and 0.3, 25° C.",not changed
same,Crystal form change in water activity assay,"[3]; water activity greater than 0.3, 25° C.",changed to the crystal form C
same,Solubility (24 hours),[4]; 0.01 mol/L HCl,7.941 mg/mL
same,Solubility (conclusion),[4]; buffer solutions below pH 6.8 and purified water,high solubility
same,Final pH,[4]; 0.01 mol/L HCl,3.59
same,Final pH,[4]; pH 3.8 buffer solution,3.988
same,Final pH,[4]; pH 4.5 buffer solution,4.531
same,Final pH,[4]; pH 5.5 buffer solution,5.499
same,Final pH,[4]; pH 6.0 buffer solution,5.900
same,Final pH,[4]; pH 6.8 buffer solution,6.588
same,Final pH,[4]; pH 7.4 buffer solution,7.096
same,Final pH,[4]; water,5.296
same,Evaluation of dissolution property,"[4]; merged cell: 0.1 mol/L HCl, 0.01 mol/L HCl, pH 3.8, 4.5, 5.5, 6.0 buffer solutions and water",High solubility
same,Evaluation of dissolution property,[4]; merged cell: pH 6.8 and pH 7.4 buffer solutions,Low solubility
same,Solubility (2 hours),[4]; pH 3.8 buffer solution,3.749 mg/mL
same,Solubility (24 hours),[4]; pH 3.8 buffer solution,3.645 mg/mL
same,Solubility (2 hours),[4]; pH 4.5 buffer solution,3.824 mg/mL
same,Solubility (24 hours),[4]; pH 4.5 buffer solution,3.141 mg/mL
same,Solubility (2 hours),[4]; pH 5.5 buffer solution,3.571 mg/mL
same,Solubility (2 hours),[4]; pH 6.0 buffer solution,3.785 mg/mL
same,Solubility (24 hours),[4]; pH 6.0 buffer solution,3.638 mg/mL
same,Solubility (2 hours),[4]; water,2.720 mg/mL
